Test results reported in patent US8772250B2, “Compositions and methods for treating ischemia and ischemia-reperfusion injury” (Ischemix, LLC, priority 2010, dated 2014).
Marks after values point to notes of the source that are not given here.

How the values were obtained:
[1] = system: myocardial ischemia-reperfusion injury; experiment: Rat model of myocardial I/R injury (MI/AR ratio); assay type: in vivo; conditions: for % Reduction in MI/AR Compared to Vehicle: rat IV
Akt = experiment: Cytoblot assay for Akt activation in A549 cells; assay type: cell-based, human
Method: The ability of RLip-EA-OH to increase phosphorylated Akt was assayed using an in-cell western blot, or cytoblot. A549 cells (human non-small cell lung cancer cell line) were selected because these cells can be manipulated to increase or decrease the level of phosphoryated Akt. The cells were inoculated onto culture plates and allowed to adhere to the bottom, then treated, fixed, and permeabilized. Following permeabilization, the cells were treated with antibodies specific for either phospho-Akt or total Akt. The cells were then treated with fluorescent secondary antibodies to quantify the amount of bound primary antibody. Total Akt and phospho-Akt were simultaneously detected.
A549 cells were plated in 384 well black-wall, clear-bottom, cell culture-treated microtiter plates at 70% confluence. Cells were incubated overnight to allow cell attachment. The media was changed to low serum (0.1%, fetal bovine serum [FBS]) and the cells were incubated for another 24 hours. Cells were treated with test compounds, fixed and permeabilized for the Akt assay. The fixative was 3.7% formaldehyde in phosphate buffered saline. The permeabilization buffer was 0.5% Triton X-100 in phosphate buffered saline. After permeabilization of cells, the amounts of total Akt and phosphorylated Akt at either of the two phosphorylation sites (threonine-308 and serine-473) were determined at 7 test concentrations, each performed in quadruplicate. The phospho-Akt data were normalized to total Akt and background subtracted for analysis.
Following overnight serum starvation to reduce basal Akt phosphorylation, cells were stimulated with vehicle, RLip-EA-OH, or RLip-OH. Cells were treated for 45 minutes or 3 hours and studied for phosphorylation at serine-473 or threonine 308, respectively.

[2] = system: myocardial ischemia-reperfusion injury; experiment: Rat model of myocardial I/R injury (MI/AR ratio); assay type: in vivo; conditions: for % Reduction in MI/AR Compared to Vehicle: rat IV; remark: listed apart in the source
From the text: A rat model of myocardial I/R injury was used as an in vivo screen to determine if certain lipoic acid derivative compounds are cardio-protective (e.g., against mycoardial ischemia-reperfusion injury). This model is analogous to the ischemia-reperfusion injury observed in cardiac patients following coronary occlusions and cardiac surgery procedures, such as coronary artery bypass grafting (CABG) (Matsui, T., Tao, J., del Monte, F., Lee, K.-H. et al., Akt Activation Preserves Cardiac Function and Prevents Injury After Transient Cardiac Ischemia In vivo, Circulation 2001, 104:330).
The circumflex branch of the left coronary artery was ligated temporarily to induce regional ischemia in the left ventricular mass, followed by the injection of fluorescent microspheres to delineate the ischemic region. The animals were sacrificed about 24 hours after reperfusion and the hearts were excised, sectioned and stained with triphenyltetrazolium. The direct impact of the pharmacologic intervention was determined by measuring the myocardial infarct area (MI), the ischemic area at risk (AR) and the left ventricular area (LV). The reduction of MI over the AR (MI/AR ratio) was used as the primary measure of drug efficacy relative to vehicle controls.
Male Sprague-Dawley rats between 300 and 350 gm were used for these experiments. Anesthesia was induced with 3-4% isoflurane in an induction chamber. After induction, anesthesia was maintained at a surgical plane with 1.5-2.0% isoflurane, administered by a Rodent Ventilator through a 16-gauge angiocatheter introduced orally into the trachea. The ventilator was set at 2.5 cc at a rate of 60-65 breaths per minute to maintain ventilation during surgery. The core temperature of the animal was monitored and maintained at 37° C. using a rectal probe and a heating lamp attached to a temperature controller.
A left anterior thoracotomy was performed and the heart was exposed using a vertical pericardotomy. The circumflex branch of the left coronary artery (LCx) was ligated approximately 4 mm from the aorta using a cardiovascular 7.0 monofilament suture on an 11 mm needle to induce ischemia in the left ventricle.
Fluorescent microspheres (300 μL) were injected into the left ventricular cavity 10-20 minutes after the ligation to delineate the ischemic area. The suture was removed 30 minutes after ligation to reperfuse the ischemic area and the ischemic area was checked for reperfusion.
The chest was then closed in layers using absorbable suture (Dexon 5-0) for the muscle layers and monofilament Nylon 5-0 suture was used to close the cutaneous layer. The animals were allowed to recover, then were returned to the colony.
Twenty-four hours after reperfusion, anesthesia was induced using ketamine hydrochloride and the chest was opened. The animals were sacrificed with 15% potassium chloride aqueous solution (w/v) injected into the LV cavity to arrest the heart in diastole. The heart was excised distal to the aortic valve and washed with saline to remove the blood. Sagittal slices of the heart were obtained between the base of the ventricle and the apex. Five slices of heart tissue were obtained, each 2 mm thick. The slices were immersed in a 1% 2,3,5-triphenyl-2H-tetrazolium chloride (TTC) in saline solution and then stored in the dark for 30 minutes to stain.
Images of the slices were obtained under bright field (to observe the TTC staining) and under fluorescence (to observe the microspheres). The area at risk was determined by the absence of microspheres and the infarct area was determined by the absence of TTC staining.
In vivo experiments employing a rat model of myocardial I/R injury were performed as described in Example 8. Catheterized (jugular vein) rats were used for intravenous dose administration at time points prior to and/or including 0.25 h.

## C[C@H](NC(=O)[C@H](CCC(=O)O)NC(=O)CCCC[C@@H]1CCSS1)C(=O)O [RLip-EA-OH, N-(R)-lipoyl-L-glutamyl-L- alanine]
[1]; intravenously (bolus IV and infusion), orally and intra-cardiac
  efficacy in a rat model of I/R injury: efficacious
[1]; Entry 1: 1 mg/kg at −0.25 h
  % Reduction in MI/AR Compared to Vehicle: 3%
[1]; Entry 2a: 3 mg/kg (bolus) at −0.25 h
  % Reduction in MI/AR Compared to Vehicle: 6%
[1]; Entry 3a: 5 mg/kg (bolus) at −0.25 h
  % Reduction in MI/AR Compared to Vehicle: 27* %
[1]; Entry 3b: 5 mg/kg (1 h infusion) at −1 h
  % Reduction in MI/AR Compared to Vehicle: 27* %
[1]; Entry 4a: 10 mg/kg (bolus) at −0.25 h
  % Reduction in MI/AR Compared to Vehicle: 33* %
[1]; Entry 4b: 10 mg/kg (1 h infusion)
  % Reduction in MI/AR Compared to Vehicle: 33* %
[1]; Entry 6: 20 mg/kg at −0.25 h
  % Reduction in MI/AR Compared to Vehicle: 9%
[1]; Entry 8: 10 mg/kg at −6 h
  % Reduction in MI/AR Compared to Vehicle: 24* %
[1]; Entry 9: 10 mg/kg at −24 h
  % Reduction in MI/AR Compared to Vehicle: 24* %
[1]; Entry 10: 20 mg/kg at −3 h
  % Reduction in MI/AR Compared to Vehicle: 26* %
[1]; Entry 11: 40 mg/kg at −3 h
  % Reduction in MI/AR Compared to Vehicle: 17%
[1]; Entry 14: 10 and 10 mg/kg at −24 and −3 h
  % Reduction in MI/AR Compared to Vehicle: 32* %
[1]; Entry 15: 10 and 10 and 10 mg/kg at −24 and −3 and −0.25 h
  % Reduction in MI/AR Compared to Vehicle: 42* %
[1]; Entry 17: 10 and 10 mg/kg at −3 h and at reperfusion
  % Reduction in MI/AR Compared to Vehicle: 34* %
[1]; rat, 1 mg/kg IC, 15 minutes pre-occlusion
  reduction of myocardial tissue death vs saline vehicle: 38%
[1]; rat, 1 mg/kg IC, Table 7 meta analysis
  Reduction of MI:AR Ratio Relative to Vehicle (%): 31 ± 3 %
[1]; rat, 1 mg/kg IC, Table 8
  Reduction of MI:AR Ratio Relative to Vehicle (%): 31 ± 3 %
[1]; rat, 1 mg/kg IC, at reperfusion (within 1 minute after reperfusion)
  reduction of myocardial tissue death vs saline vehicle: 32%
[1]; rat, 1 mg/kg IC, during occlusion (15 minutes after occluding)
  reduction of myocardial tissue death vs saline vehicle: 24%
[1]; rat, 1 mg/kg IC, meta analysis n=64
  MI:AR ratio: 0.250
[1]; rat, 1 mg/kg IC, meta analysis n=64 vs n=54, p<0.001
  reduction of MI/AR vs saline vehicle: 33%
[1]; rat, 1 mg/kg single bolus IC 15 minutes prior to ischemia
  MI/AR: 0.337
[1]; rat, 2 mg/kg single bolus IC 15 minutes prior to ischemia
  MI/AR: 0.290
[1]; rat, B—Single (10_0)
  MI/AR (meta-analysis): 0.261
[1]; rat, C—Multiple (10_10)
  MI/AR (meta-analysis): 0.207
[1]; rat, IV or IC, 15 minutes pre-occlusion
  effect of different doses on myocardial tissue death (MI/AR): significantly (p<0.05) reduced myocardial tissue death and was dose dependent
[1]; rat, Table 11: 10 mg/kg at −0.25 h
  % Reduction in MI/AR compared to vehicle controls: 28%
[1]; rat, Table 11: 10 and 10 mg/kg at −3 and −0.25 h
  % Reduction in MI/AR compared to vehicle controls: 43* %
[1]; rat, single 10 mg/kg IV bolus 15 min before ischemia or at 3 h before ischemia
  reduction in MI damage: ~33%
[1]; rat, single bolus dose 10 mg/kg at −3 h
  reduction of MI (meta-analysis): 29%
Akt; 45 minutes of treatment
  increase in phosphorylated Akt at serine 473: 3 fold
Akt; 3 hours of treatment, compound alone
  Akt phosphorylation at threonine-308: Increased Akt phosphorylation
Akt; variant concentrations
  amount of phosphorylated Akt relative to total Akt: increased the amount of phosphorylated Akt relative to total Akt in a dose dependent manner
[2]; Entry 2b: 3 mg/kg (1 h infusion) at −1 h
  % Reduction in MI/AR Compared to Vehicle: 12%
[2]; Entry 5: 15 mg/kg at −0.25 h
  % Reduction in MI/AR Compared to Vehicle: 30* %
[2]; Entry 7: 10 mg/kg at −3 h
  % Reduction in MI/AR Compared to Vehicle: 33* %
[2]; Entry 12: 10 and 10 mg/kg at −3 and −0.25 h
  % Reduction in MI/AR Compared to Vehicle: 43* %
[2]; Entry 13: 20 and 10 mg/kg at −3 and −0.25 h
  % Reduction in MI/AR Compared to Vehicle: 38* %
[2]; Entry 16: 10 and 10 and 10 mg/kg at −3 and −0.25 h and at reperfusion
  % Reduction in MI/AR Compared to Vehicle: 15%
[2]; rat, Table 11: 10 mg/kg at −3 h
  % Reduction in MI/AR compared to vehicle controls: 29%
[2]; rat, multiple dosing 10 mg/kg at −3 h and −0.25 h
  reduction of MI (meta-analysis): 43%
